Experimental data: patent US10676829B2, “Corrosion inhibition composition for pipelines, process of elaboration and synthesis” (INSTITUTO MEXICANO DEL PETROLEO, priority 2013, dated 2020)

Assay: Corrosion inhibition efficiency by electrochemical impedance spectroscopy (EIS), three-electrode cell
Settings: 40° C., 3 hours
Method: Evaluation Using Electrochemical Impedance Spectroscopy (EIS)
The evaluation of corrosion inhibiting properties of the individual structures and binary compositions was carried out in a conventional electrochemical cell (E) with a three electrode arrangement as the one shown in FIG. 1. This cell allows maintaining stirring and constant temperature during development of measurement.
The inhibiting formulations to be evaluated are added in the desired concentration in the test solution (D), whereas a stirring of 2000 rpm and a temperature of 40° C. are maintained. […] The system is maintained under stirring and constant temperature for 3 hours.
After 3 hours, the electrochemical impedance spectrum is obtained in a range of 10 kHz and 10 mHz frequency and the resistance related to corrosion and together with that obtained in an identical experiment but only with the test solution was obtained from this spectrum; the corrosion inhibition efficiency was calculated.

[1] = test water SP1, concentration 50 mg/L
[2] = test water SP1, concentration 500 mg/L
[3] = test water SP1, concentration 2500 mg/L

Row | Compound | Inhibition efficiency % [1] [%] | Inhibition efficiency % [2] [%] | Inhibition efficiency % [3] [%]
1 | CCCCCCCCCCCCN=Cc1c[nH]cn1 [IMC12, N-[1H-imidazole-(4-methylidene)]-dodecane-1-amine] | 23.1 | 80.9 | 95.4
2 | CCCCCCNCn1nnc2ccccc21 [BZC6, N-(1H-benzotriazole-1-methyl)-hexane-1-amine] | 18.2 | 35.3 | 73.7
3 | CCCCn1cc[n+](C)c1.[Br-] [MIMC4, 1-butyl-3-methylimidazolium bromide] | 15.2 | 61.9 | 76.0
4 | CCCCCCCCCCCCCCN=Cc1c[nH]cn1 [IMC14, N-[1H-imidazole-(4-methylidene)]-tetradecane-1-amine] | 19.8 | 78.9 | 98.0
